Experimental data taken from patent EP4579344A1, “THIOALKYLCOUMARIN PHOTOSENSITIZERS FOR PHOTOPOLYMERIZATION” (IGM Group B.V., priority 2023, dated 2025).

What was measured:
[1] = Fluorescence emission peak wavelength; assay type: physicochemical; conditions: dilute solution (A ~0.1) in acetonitrile; excitation at absorption maximum
Description: Fluorescence emission peak wavelength: Fluorescence spectra of the photosensitizers were recorded using a Horiba Jobin Yvon Fluoromax4 spectrofluorometer. The measurement for each photosensitizer was taken in a dilute solution (A ~0.1) of spectroscopic grade acetonitrile, using 1 cm path cell. The excitation wavelength was set at the maximum of absorption of the photosensitizer.

[2] = Maximum absorption peak wavelength; assay type: physicochemical; conditions: spectroscopic grade acetonitrile; maximum between 300 nm and 450 nm
Description: Maximum absorption peak wavelength: Absorption spectra have been recorded using an AnalytikJena S600 spectrophotometer. On a microbalance, the photosensitizer was weighted with a 10^-6 g precision in a DSC crucible. The crucible and its content was transferred in volumetric flask, then filled with spectroscopic grade acetonitrile. The reference was taken for the empty spectrometer, and two series of spectra were recorded for each solution, in a 1 cm path and in a 1 mm path cells. The spectra of the solvent was taken separately in both cell and then subtracted to solutions spectra. The absorption maxima value is taken where the absorption spectra reaches its maximum in the region between (300 nm and 450 nm)

Cc1c(-c2ccccc2)c(=O)oc2cc(SCCO)ccc12 [S6]
λ^fluo max [1]: 424 nm | λ^abs max [2]: 335 nm

CCCCC(CC)CSc1ccc2cc(-c3ccccc3)c(=O)oc2c1 (stereo not drawn) [S2]
λ^fluo max [1]: 411 nm | λ^abs max [2]: 352 nm

CSc1ccc2cc(-c3nc4ccccc4n3C)c(=O)oc2c1 [S7]
λ^fluo max [1]: 476 nm | λ^abs max [2]: 362 nm

CN(C)CCSc1ccc2cc(-c3ccccc3)c(=O)oc2c1 [S4]
λ^fluo max [1]: 435 nm | λ^abs max [2]: 351 nm

Cc1cc(=O)oc2cc(SCCO)ccc12 [S5]
λ^fluo max [1]: 396 nm | λ^abs max [2]: 330 nm

CCSc1ccc2ccc(=O)oc2c1 [S9]
λ^fluo max [1]: 406 nm | λ^abs max [2]: 323 nm

CCSc1ccc(-c2cc3ccc(SCC)cc3oc2=O)cc1 [S3]
λ^fluo max [1]: 439 nm | λ^abs max [2]: 347 nm

CCN(CC)c1ccc2c(C)cc(=O)oc2c1 [S8, 7-diethylamino-4-methylcoumarin, reference compound]
λ^fluo max [1]: 434 nm | λ^abs max [2]: 370 nm

CCSc1ccc2cc(-c3ccccc3)c(=O)oc2c1 [S1]
λ^fluo max [1]: 440 nm | λ^abs max [2]: 345 nm
